Values of other authors, collected in patent US20210069354A1, “METHOD OF TRANSPORTING AN AGENT ACROSS BLOOD-BRAIN, BLOOD-COCHLEAR OR BLOOD-CEREBROSPINAL FLUID BARRIER” (Oklahoma Medical Research Foundation, priority 2015, published 2021).

Conditions: normal brain

In the case of O=C([O-])CN(CCN(CC(=O)[O-])CC(=O)O)CCN(CC(=O)[O-])CC(=O)O.[Gd+3] [Gd-DTPA, gadolinium diethylene triamine penta acetic acid], the “crossing of the BBB” value is listed as “does not cross the BBB”.
